These compounds were tested against cAMP and cAMP-inhibited cGMP 3',5'-cyclic phosphodiesterase 10A (Homo sapiens, UniProt Q9Y233) (assay: PDE10A assay).
Method in brief: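 Human PDE10A (2 ng/well) preincubated 15 min RT with compound in HEPES pH 7.5, 10 mM MgCl2, BSA, then reacted 15 min with 50 nM [3H]cGMP/cGMP substrate. Stopped with Y-Si SPA beads; bound radioactivity counted, IC50 from four-parameter logistic, pIC50 = −log10(IC50).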

| Compound | IC50 |
| --- | --- |
| Cc1cc(C)c2c(NC(=O)c3c(C(=O)N4CCC4)cnn3C)nn(C)c2n1 [Roche-Dataset for PDE10A, Compound 1160] | 4290 nM |
| Cn1ncc(C(=O)N2CCOCC2)c1C(=O)N[C@@H]1CCn2cc(-c3ccc(F)cc3)nc2C1 [Roche-Dataset for PDE10A, Compound 346] | 4340 nM |
| CNC(=O)c1cc2[nH]c(-c3ccccc3)nc2cc1NC(=O)c1ccn(C)n1 [Roche-Dataset for PDE10A, Compound 526] | 111 nM |
| CCN(C)C(=O)c1cnn(C)c1C(=O)Nc1ccn2cc(-c3cccc(OCCO)c3)nc2n1 [Roche-Dataset for PDE10A, Compound 39] | 8.81 nM |
| Cc1c(Cl)cc(C(F)(F)F)c2nc(CCc3nc(N4CCCC4)nn3C)nn12 [Roche-Dataset for PDE10A, Compound 157] | 1.1 nM |
| Nc1ccc(C2CC2)nc1C(=O)Nc1cc2nc(-c3ccccc3)[nH]c2cc1C(=O)NC1COC1 [Roche-Dataset for PDE10A, Compound 243] | 11 nM |
| Cc1ccc(C)c(C(=O)Nc2ccc3cc(-c4ccccc4)nn3c2)n1 [Roche-Dataset for PDE10A, Compound 324] | 53 nM |
| Cn1ncc(C(=O)N2CCC2)c1C(=O)N[C@@H]1CCn2cc(-c3ccccc3OC(F)(F)F)nc2C1 [Roche-Dataset for PDE10A, Compound 253] | 44 nM |
| Cn1ncc(C(=O)O)c1C(=O)Nc1ccn2nc(-c3cccc(F)c3)nc2c1 [Roche-Dataset for PDE10A, Compound 380] | 25 nM |
| O=C(Nc1ccnc(Cl)n1)c1cn(-c2ccc3ccccc3n2)cn1 [Roche-Dataset for PDE10A, Compound 627] | 1230 nM |
| CCn1nc(NC(=O)c2c(C(=O)N3CCC3)cnn2C)cc1C1CC1 [Roche-Dataset for PDE10A, Compound 1135] | 6120 nM |
| CNC(=O)c1cnn(C)c1C(=O)Nc1ccn2cc(-c3cccc(F)c3)nc2n1 [Roche-Dataset for PDE10A, Compound 656] | 62 nM |
| Cn1ncc(C(N)=O)c1C(=O)Nc1ccn2nc(-c3ccccc3)nc2c1 [Roche-Dataset for PDE10A, Compound 401] | 16 nM |
| CNc1nc2cc(NC(=O)c3c(C(=O)N4CCC4)cnn3C)ccn2n1 [Roche-Dataset for PDE10A, Compound 704] | 7.7 nM |
| O=C(NCCC(=O)N1CCOCC1)c1nc(C2CC2)cnc1Nc1cncnc1 [Roche-Dataset for PDE10A, Compound 591] | 1520 nM |
| O=C(NCCCc1noc(-c2ccccc2)n1)c1nc(C2CC2)cnc1Nc1cncnc1 [Roche-Dataset for PDE10A, Compound 181] | 495 nM |
| Cn1ncc(C(=O)N2CCC2)c1C(=O)Nc1ccn(-c2cc(Cl)cc(Cl)c2)n1 [Roche-Dataset for PDE10A, Compound 1051] | 43 nM |
| CC(C)(C)CC(C)(C)NC(=O)c1nc(C2CC2)cnc1Nc1cncnc1 [Roche-Dataset for PDE10A, Compound 976] | 826 nM |
| CN(C)CCn1nc(-c2ccccn2)cc1NC(=O)c1nc(C2CC2)ccc1Nc1cncnc1 [US8470820, 12] | 1.05 nM |
| COc1cccc(-c2cn3c(n2)C[C@H](NC(=O)c2c(C(=O)N(C)C)cnn2C)CC3)c1 [Roche-Dataset for PDE10A, Compound 230] | 263 nM |
| O=C(Nc1ccc(O)c2c1CCCC2=O)c1nc(C2CC2)cnc1Nc1cncnc1 [Roche-Dataset for PDE10A, Compound 949] | 10 nM |

| Compound | IC50 |
| --- | --- |
| CC(=O)N1CCC(NC(=O)c2nc(C3CC3)cnc2Nc2cncnc2)CC1 [Roche-Dataset for PDE10A, Compound 993] | 10000 nM |
| Cn1ncc(C(=O)N2CCC2)c1C(=O)Nc1ccnn1-c1ccccn1 [Roche-Dataset for PDE10A, Compound 1024] | 130 nM |
| Cc1c(C#N)nc2ccc(C#Cc3nc(-c4ccccc4)cn3C)nn12 [Roche-Dataset for PDE10A, Compound 79] | 1.27 nM |
| CN(C)CCn1nccc1NC(=O)c1nc(C2CC2)cnc1Nc1cncnc1 [Roche-Dataset for PDE10A, Compound 857] | 314 nM |
| CC(=O)N(C)c1cccc(NC(=O)c2nc(C3CC3)cnc2Nc2cncnc2)c1 [Roche-Dataset for PDE10A, Compound 821] | 135 nM |
| Cc1nc2c(C)c(C)c(CCc3nc(-c4ccccc4)cn3C)nn2c1C [US10399985, Example 14] | 2.4 nM |
| O=C(Nc1cccc(C(=O)N2CCOCC2)n1)c1nc(C2CC2)cnc1Nc1cncnc1 [Roche-Dataset for PDE10A, Compound 920] | 7.49 nM |
| O=C(Nc1nnc(-c2ccc(F)cc2)s1)c1nc(C2CC2)ccc1Nc1cncnc1 [US8470820, 45] | 6200 nM |
| Cc1ncc(C)n2nc(CCc3nc(N4CC5CC4C5)nn3C)nc12 [Roche-Dataset for PDE10A, Compound 524] | 858 nM |
| Cc1nc2cc(Cl)ccc2nc1OCc1nc(N2CCCC2)nn1C [Roche-Dataset for PDE10A, Compound 982] | 28 nM |
| Cn1ncc(C(=O)N2CCC2)c1C(=O)Nc1ccn(-c2ccccc2F)n1 [Roche-Dataset for PDE10A, Compound 1043] | 396 nM |
| Cn1ccc(NC(=O)c2c(C(=O)N3CCC3)cnn2C)n1 [Roche-Dataset for PDE10A, Compound 1137] | 1430 nM |
| O=C(NC1CC1)c1ccsc1NC(=O)c1nc(C2CC2)ccc1Nc1cncnc1 [US8703768, 89] | 0.48 nM |
| O=C(Nc1ccnn1-c1ccccc1)c1nc(C2CC2)ccc1Nc1cncnc1 [Roche-Dataset for PDE10A, Compound 507] | 0.87 nM |
| O=C(c1nc(C2CC2)cnc1Nc1cncnc1)N1CCC(O)(Cc2ccccc2)CC1 [Roche-Dataset for PDE10A, Compound 1044] | 10000 nM |
| Cc1c(C(F)F)nc2ccc(C#Cc3nc(N4CCCC4)nn3C)nn12 [2-(Difluoromethyl)-3-methyl-6-((1-methyl-3-(pyrrolidin-1-yl)-1H-1,2,4-triazol-5-yl)ethynyl)imidazo[1,2-b]pyridazine] | 4.74 nM |
| Cc1cccc2c(=O)[nH]c(CCc3nc(-c4ccccc4)cn3C)nc12 [Roche-Dataset for PDE10A, Compound 74] | 15 nM |
| COCCNC(=O)c1cc2[nH]c(-c3ccccc3)nc2cc1NC(=O)c1cc(C2CC2)cnc1OC [Roche-Dataset for PDE10A, Compound 349] | 0.66 nM |
| CCN(C)C(=O)c1cnn(C)c1C(=O)N[C@@H]1CCn2cc(-c3cccc(OC)c3)nc2C1 [Roche-Dataset for PDE10A, Compound 136] | 1730 nM |
| O=C(Nc1ccn2nc(-c3ccccc3)nc2c1)c1onc2ccccc12 [Roche-Dataset for PDE10A, Compound 420] | 194 nM |
| COC(=O)c1cccnc1C(=O)Nc1ccn2nc(-c3ccccc3)nc2c1 [Roche-Dataset for PDE10A, Compound 659] | 2720 nM |

| Compound | IC50 |
| --- | --- |
| Cn1nc(-c2ccccn2)cc1NC(=O)c1cc(C(F)(F)F)ncc1Br [Roche-Dataset for PDE10A, Compound 547] | 10000 nM |
| CCOc1cccc(NC(=O)c2nc(C3CC3)cnc2Nc2cncnc2)c1 [Roche-Dataset for PDE10A, Compound 602] | 26 nM |
| Cc1ncc(C)n2nc(CCc3nc(C4CCCC4)nn3C)nc12 [Roche-Dataset for PDE10A, Compound 956] | 146 nM |
| O=C(Nc1ccc2nccnc2c1)c1nc(C2CC2)ccc1Nc1cncnc1 [Roche-Dataset for PDE10A, Compound 945] | 55 nM |
| CCCCc1cc(NC(=O)c2c(C(=O)N3CCC3)cnn2C)n(C2CCCC2)n1 [Roche-Dataset for PDE10A, Compound 814] | 619 nM |
| Cn1ncc(C(=O)N2CCC2)c1C(=O)N[C@@H]1CCn2c(nc(-c3ccccc3)c2Cl)C1 [Roche-Dataset for PDE10A, Compound 225] | 6.96 nM |
| CCOC(=O)c1cnn(C)c1C(=O)Nc1ccn2nc(-c3cccnc3F)nc2c1 [Roche-Dataset for PDE10A, Compound 264] | 183 nM |
| CNC(=O)c1cc(OCCO)ccc1NC(=O)c1nc(C2CC2)cnc1Nc1cncnc1 [US8703768, 216] | 0.77 nM |
| Cc1c(Cl)cc(C(F)(F)F)c2nc(/C=C/c3nc(N4CCCC4)nn3C)nn12 [Roche-Dataset for PDE10A, Compound 154] | 2.74 nM |
| COc1cc(NC(=O)c2ccc3cc(-c4ccccc4)nn3c2)ccn1 [Roche-Dataset for PDE10A, Compound 365] | 144 nM |
| Cc1ncc(C)n2nc(/C=C/c3nc(N4CCCC4)cn3C)nc12 [Roche-Dataset for PDE10A, Compound 596] | 326 nM |
| CCn1nc(CCc2nc3c(C)ncc(C)n3n2)nc1N1CCCC1 [Roche-Dataset for PDE10A, Compound 533] | 29 nM |
| Cc1c(Cl)ccc2nc(/C=C/c3nc(N4CCCC4)n(C)n3)nn12 [Roche-Dataset for PDE10A, Compound 393] | 4.58 nM |
| Cn1ncc(C(=O)NCc2nc3ccccc3[nH]2)c1C(=O)Nc1ccn2cc(-c3ccccc3)nc2n1 [Roche-Dataset for PDE10A, Compound 1153] | 1520 nM |
| COc1nc2cc(NC(=O)c3c(C(=O)N4CCC4)cnn3C)ccn2n1 [Roche-Dataset for PDE10A, Compound 745] | 6550 nM |
| Cn1ncc(C(=O)NCCOCCO)c1C(=O)Nc1ccn2nc(-c3ccccc3)nc2c1 [Roche-Dataset for PDE10A, Compound 84] | 14 nM |
| O=C(Nc1ccn2nc(-c3ccccc3)nc2c1)c1c(C(=O)N2CCC2)cnn1CCF [Roche-Dataset for PDE10A, Compound 131] | 1340 nM |
| Cc1c(Cl)nn2c(C)c(/C=C/c3nc(N4CCCC4)nn3C)nc2c1C [Roche-Dataset for PDE10A, Compound 309] | 48 nM |
| O=C(Nc1ccn(CCF)n1)c1nc(C2CC2)ccc1Nc1cncnc1 [Roche-Dataset for PDE10A, Compound 698] | 9.84 nM |
| O=C1c2ccccc2C(=O)N1CCc1nc(-c2ccccc2)cs1 [Roche-Dataset for PDE10A, Compound 150] | 342 nM |
| Cc1ncc(C)n2nc(CCc3nc(-c4cn[nH]c4)nn3C)nc12 [Roche-Dataset for PDE10A, Compound 961] | 87 nM |

From BindingDB's records for doi:10.1007/s10822-022-00478-x (Roche Innovation Center Basel, F. Hoffmann-La Roche Ltd., 2022)
